Measured values: ChEMBL document CHEMBL1138459 (Bioorg Med Chem Lett, 2009)
Calls of active or inactive are those of the source. The calls are words filed in the database; no cut-off is given here.

What was measured:
[1] = molecular target: T1, Peroxisome proliferator-activated receptor alpha (Homo sapiens, UniProt Q07869); test: biochemical
T1 sequence (Q07869 whole entry): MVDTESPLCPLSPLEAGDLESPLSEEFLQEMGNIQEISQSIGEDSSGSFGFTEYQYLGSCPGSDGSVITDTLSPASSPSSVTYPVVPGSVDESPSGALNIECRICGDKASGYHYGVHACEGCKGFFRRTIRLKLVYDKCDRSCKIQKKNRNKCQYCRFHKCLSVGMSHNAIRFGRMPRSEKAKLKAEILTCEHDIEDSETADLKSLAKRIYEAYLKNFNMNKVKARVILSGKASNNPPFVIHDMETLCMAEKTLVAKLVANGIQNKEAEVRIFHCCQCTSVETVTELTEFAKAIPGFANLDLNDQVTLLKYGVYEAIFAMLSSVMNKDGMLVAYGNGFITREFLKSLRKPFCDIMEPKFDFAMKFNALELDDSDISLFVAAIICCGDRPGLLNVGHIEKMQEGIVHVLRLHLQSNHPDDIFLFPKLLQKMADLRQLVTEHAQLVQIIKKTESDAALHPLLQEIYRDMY

Rattus norvegicus [2] = test: Antidiabetic activity in Zucker fa/fa rat assessed as glucose infusion rate at 10 mg/kg/day after 7 days by hyperinsulinemic-euglycemic clamp study; type: functional, organism-based
Rattus norvegicus [3] = test: Antidiabetic activity in Zucker fa/fa rat assessed as fasting plasma insulin level at 10 mg/kg/day; type: functional
[4] = molecular target: T1, Peroxisome proliferator-activated receptor alpha
Mus musculus [5] = test: Increase in plasma HDLC level in human ApoA1 transgenic mouse model at 10 mg/kg/day after 12 days by FPLC method; type: functional, organism-based
Rattus norvegicus [6] = test: Antidiabetic activity in Zucker fa/fa rat assessed as HOMA-insulin resistance index at 10 mg/kg/day; type: functional, organism-based
[7] = molecular target: T2, Peroxisome proliferator-activated receptor delta (Homo sapiens, UniProt Q03181)
T2 sequence (Q03181 whole entry): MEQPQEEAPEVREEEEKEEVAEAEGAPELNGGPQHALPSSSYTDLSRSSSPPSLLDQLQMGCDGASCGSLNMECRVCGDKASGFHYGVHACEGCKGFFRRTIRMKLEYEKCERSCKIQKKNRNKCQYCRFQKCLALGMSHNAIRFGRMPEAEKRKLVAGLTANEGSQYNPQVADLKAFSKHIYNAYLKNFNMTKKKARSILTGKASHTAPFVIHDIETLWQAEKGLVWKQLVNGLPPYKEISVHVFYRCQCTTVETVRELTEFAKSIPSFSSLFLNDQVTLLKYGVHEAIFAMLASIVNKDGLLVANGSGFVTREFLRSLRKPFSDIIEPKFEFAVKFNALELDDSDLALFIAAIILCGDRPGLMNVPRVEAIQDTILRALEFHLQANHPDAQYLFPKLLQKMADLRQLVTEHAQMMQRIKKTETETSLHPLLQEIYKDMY

[8] = Bioavailability in rat; type: ADME, organism-based; settings: in vivo
Mus musculus [9] = test: Increase in plasma HDLC level in human ApoA1 transgenic mouse model at 3 mg/kg/day after 12 days by FPLC method; type: functional, organism-based
Rattus norvegicus [10] = test: Antidiabetic activity in Zucker fa/fa rat assessed as glucose infusion rate at 1 mg/kg/day after 7 days by hyperinsulinemic-euglycemic clamp study; type: functional, organism-based
[11] = Bioavailability in cynomolgus monkey; type: ADME, organism-based, Macaca fascicularis; settings: in vivo
[12] = Total clearance in cynomolgus monkey; type: ADME, organism-based, Macaca fascicularis; settings: in vivo
Mus musculus [13] = test: Antidiabetic activity in db/db mouse diabetic model assessed as reduction in post prandial blood glucose level at 3 mg/kg/day; type: functional, organism-based
Mus musculus [14] = test: Antidiabetic activity in overnight fasted db/db mouse diabetic model assessed as reduction in blood glucose level at 3 mg/kg/day, po chronically for 12 days challenged with glucose 24 hrs post last dose by OGTT; type: functional, organism-based
Mus musculus [15] = test: Antidiabetic activity in db/db mouse diabetic model assessed as reduction in post prandial blood glucose level at 0.3 mg/kg/day; type: functional, organism-based
Mus musculus [16] = test: Antidiabetic activity in overnight fasted db/db mouse diabetic model assessed as reduction in blood glucose level at 0.3 mg/kg/day, po chronically for 12 days challenged with glucose 24 hrs post last dose by OGTT; type: functional, organism-based
[17] = Total clearance in rat; type: ADME, organism-based; settings: in vivo
Rattus norvegicus [18] = test: Antidiabetic activity in Zucker fa/fa rat assessed as HOMA-insulin resistance index at 1 mg/kg/day; type: functional, organism-based
[19] = Half life in cynomolgus monkey; type: ADME, organism-based, Macaca fascicularis; settings: in vivo
[20] = Half life in rat; type: ADME, organism-based; settings: in vivo
Mus musculus [21] = test: Increase in plasma HDLC level in human ApoA1 transgenic mouse model at 0.3 mg/kg/day after 12 days by FPLC method; type: functional, organism-based
Rattus norvegicus [22] = test: Antidiabetic activity in Zucker fa/fa rat assessed as fasting plasma insulin level at 1 mg/kg/day; type: functional
Rattus norvegicus [23] = test: Antidiabetic activity in Zucker fa/fa rat assessed as HOMA-insulin resistance index at 3 mg/kg/day; type: functional, organism-based
Rattus norvegicus [24] = test: Antidiabetic activity in Zucker fa/fa rat assessed as glucose infusion rate at 3 mg/kg/day after 7 days by hyperinsulinemic-euglycemic clamp study; type: functional, organism-based
Mus musculus [25] = test: Increase in plasma HDLC level in human ApoA1 transgenic mouse model at 300 mg/kg/day after 12 days by FPLC method; type: functional, organism-based

CC(=O)c1ccccc1N[C@@H](Cc1ccc(OCCc2nc(-c3ccccc3)oc2C)cc1)C(=O)O
IC50 [1]: 633 nM
Activity (Rattus norvegicus [2]): Active
Activity (Rattus norvegicus [3]): 776 ng/mL
EC50 [4]: 284 nM
Activity (Mus musculus [5]): inactive
Activity (Rattus norvegicus [6]): Active

CCO[C@@H](Cc1ccc(OCCc2nc(-c3ccc(C(F)(F)F)cc3)oc2C)c2ccccc12)C(=O)O
IC50 [1]: 905 nM
EC50 [4]: 11 nM

CCCCCCOC(Cc1ccc(OCCc2nc(-c3ccccc3)oc2C)c2ccsc12)C(=O)O (racemic)
IC50 [1]: 120 nM
EC50 [4]: 249 nM

CCO[C@@H](Cc1ccc(OCCc2nc(-c3ccc(-c4ccccc4)cc3)oc2C)c2ccsc12)C(=O)O
IC50 [1]: 194 nM
EC50 [4]: 167 nM

Cc1oc(-c2ccccc2)nc1CCOc1ccc(CC(OCC(C)C)C(=O)O)c2sccc12 (racemic)
IC50 [1]: 239 nM
EC50 [4]: 48 nM

Cc1oc(-c2ccccc2)nc1CCOc1ccc(C[C@H](OCC2CC2)C(=O)O)c2sccc12
IC50 [1]: 21 nM
EC50 [4]: 27 nM

Cc1oc(-c2ccc(C(C)C)cc2)nc1CCOc1ccc(C[C@H](OCC2CC2)C(=O)O)c2sccc12
IC50 [1]: 37 nM
EC50 [4]: 16 nM

CO[C@@H](Cc1ccc(OCCc2nc(-c3ccc(C(F)(F)F)cc3)oc2C)c2ccsc12)C(=O)O
IC50 [1]: 53 nM
EC50 [4]: 2 nM

CCO[C@@H](Cc1ccc(OCCc2nc(-c3ccccc3)oc2C)c2ccccc12)C(=O)O
IC50 [1]: 198 nM
EC50 [7]: 169 nM
EC50 [4]: 11 nM

CCO[C@@H](Cc1ccc(OCCc2nc(-c3ccccc3)oc2C)c2sccc12)C(=O)O
IC50 [1]: 333 nM
EC50 [4]: 58 nM

Cc1oc(-c2ccccc2)nc1CCOc1ccc(C[C@H](OCC(F)(F)F)C(=O)O)c2sccc12
IC50 [1]: 60 nM
EC50 [4]: 555 nM

Cc1oc(-c2ccc(-c3ccccc3)cc2)nc1CCOc1ccc(C[C@H](OCC(F)(F)F)C(=O)O)c2ccccc12
IC50 [1]: 429 nM
EC50 [4]: 987 nM

COC(Cc1ccc(OCCc2nc(-c3ccccc3C)oc2C)c2ccccc12)C(=O)O (racemic)
IC50 [1]: 432 nM
EC50 [4]: 123 nM

CCCOC(Cc1ccc(OCCc2nc(-c3ccccc3)oc2C)c2ccccc12)C(=O)O (racemic)
IC50 [1]: 69 nM
EC50 [4]: 87 nM

CO[C@@H](Cc1ccc(OCCc2nc(-c3ccc(C(C)C)cc3)oc2C)c2ccsc12)C(=O)O
IC50 [1]: 45 nM
EC50 [4]: 20 nM

CO[C@@H](Cc1ccc(OCCc2nc(-c3ccccc3)oc2C)c2sccc12)C(=O)O
IC50 [1]: 28 nM
EC50 [7]: 137 nM
EC50 [4]: 157 nM

CO[C@@H](Cc1ccc(OCCc2nc(-c3ccccc3)oc2C)c2ccsc12)C(=O)O [ALEGLITAZAR]
bioavailability [8]: 70%
Activity (Mus musculus [9]): Active
Activity (Rattus norvegicus [10]): Active
bioavailability [11]: 68%
clearance [12]: 1.6 mL/min/kg
Activity (Mus musculus [13]): Active
Activity (Mus musculus [14]): Active
Activity (Mus musculus [15]): Active
Activity (Mus musculus [16]): Active
clearance [17]: 6.2 mL/min/kg
Activity (Rattus norvegicus [18]): Active
half-life [19]: 12.9 h
half-life [20]: 4 h
Activity (Mus musculus [21]): Active
Activity (Rattus norvegicus [22]): 773 ng/mL

COc1cc(OC)cc(-c2nc(CCOc3ccc(C[C@H](OC)C(=O)O)c4sccc34)c(C)o2)c1
IC50 [1]: 48 nM
EC50 [7]: 678 nM
EC50 [4]: 61 nM

CN(CCOc1ccc(CC2SC(=O)NC2=O)cc1)c1ccccn1 (stereo not given)
Activity (Rattus norvegicus [23]): Active
Activity (Rattus norvegicus [24]): Active
Activity (Mus musculus [13]): Active
Activity (Mus musculus [15]): Active

CC(C)(Oc1ccc(C(=O)c2ccc(Cl)cc2)cc1)C(=O)O [FENOFIBRIC ACID]
IC50 [1]: 106000 nM
Activity (Mus musculus [25]): Active
EC50 [4]: 69000 nM

CCO[C@@H](Cc1ccc(OCCc2nc(-c3ccc(C(F)(F)F)cc3)oc2C)c2ccsc12)C(=O)O
IC50 [1]: 63 nM
EC50 [4]: 89 nM
